According to paper PMC11845477, “Exploring the principles behind antibiotics with limited resistance” (Nature Communications, 2025):

Tested on: P. aeruginosa ATCC BAA-3107 (SEN) and P. aeruginosa LESB58 (MDR)
Experiment: Adaptive laboratory evolution (ALE), relative MIC of evolved lines
Type: cell-based, Pseudomonas aeruginosa
Text: Using the same set of bacterial strains, we initiated adaptive laboratory evolution with the aim to maximize the level of antibiotic resistance in the populations achieved during a longer, but fixed time period.
An established protocol for adaptive laboratory evolution[46],[73] was followed to propagate populations with the highest resistance levels. Starting with an antibiotic concentration that caused approximately 50% growth inhibition, ten parallel populations for each antibiotic-ancestor strain combination were grown for 72 hours at 37 °C with continuous shaking (300 RPM). MHB broth medium was used unless stated otherwise. After each incubation, 20 µl of each culture was transferred to four new wells containing fresh medium with increasing antibiotic concentrations (0.5×, 1×, 1.5×, and 2.5× the previous concentration) in a chessboard layout to monitor potential cross-contamination. Growth was monitored by measuring OD600 using a Biotek Synergy 2 microplate reader, and only populations grown in the highest drug concentration with an OD600 > 0.2 were transferred further.
A robotic liquid handling system was used to automatically prepare a 11 to 16-step serial dilution in 384-well microtiter plates (Greiner). A final concentration of 5 × 10^5 bacterial cells per mL were inoculated into each well containing 60 µL MHB medium. Bacterial cultures were incubated at 37 °C with continuous shaking (Infors shaker, 900 rpm with 3 mm throw) for 18 hours (2 replicates from each). Cell growth was monitored by measuring the optical density (OD600 values, using Biotek Synergy microplate reader). MIC was defined as the antibiotic concentration of complete growth inhibition (i.e., OD600 < 0.05). Relative MIC was calculated as follows:1 relativeMIC=MICevolved/MICancestor […]
Supplementary Figure 4. Resistance levels following adaptive laboratory evolution across bacterial strains. The level of resistance was measured as the fold change in relative MIC between evolved and ancestral strains after ~60 days of adaptive laboratory evolution. Data are grouped by bacterial strain (A. baumannii (AB), E. coli (EC), K. pneumoniae (KP), and P. aeruginosa (PA)) and categorized as either multidrug-resistant (MDR) or sensitive (SEN). Each data point represents a laboratory evolved line, and boxplots show the median, first and third quartiles, with whiskers indicating the 5th and 95th percentiles.
Statistical analysis was performed using two-sided Dunn’s post-hoc test with Benjamini-Hochberg correction for multiple comparisons (****/ ***/ **/ * indicates p < 0.0001/ 0.001/ 0.01/ 0.05). For detailed information on antibiotic and bacterial species, see Supplementary Table 1. For mode of action groups, refer to Table 1. Source data are provided as a Source Data file.

[1] = PA-SEN (ATCC BAA 3107), evolved line 2
[2] = PA-SEN (ATCC BAA 3107), evolved line 2, MIC of evolved line / MIC of ancestor
[3] = PA-SEN (ATCC BAA 3107), evolved line 3
[4] = PA-SEN (ATCC BAA 3107), evolved line 3, MIC of evolved line / MIC of ancestor
[5] = PA-SEN (ATCC BAA 3107), evolved line 4
[6] = PA-SEN (ATCC BAA 3107), evolved line 4, MIC of evolved line / MIC of ancestor
[7] = PA-SEN (ATCC BAA 3107), evolved line 5
[8] = PA-SEN (ATCC BAA 3107), evolved line 5, MIC of evolved line / MIC of ancestor
[9] = PA-SEN (ATCC BAA 3107), evolved line 6
[10] = PA-SEN (ATCC BAA 3107), evolved line 6, MIC of evolved line / MIC of ancestor
[11] = PA-SEN (ATCC BAA 3107), evolved line 7
[12] = PA-SEN (ATCC BAA 3107), evolved line 7, MIC of evolved line / MIC of ancestor
[13] = PA-SEN (ATCC BAA 3107), evolved line 8
[14] = PA-SEN (ATCC BAA 3107), evolved line 8, MIC of evolved line / MIC of ancestor
[15] = PA-SEN (ATCC BAA 3107), evolved line 9
[16] = PA-SEN (ATCC BAA 3107), evolved line 9, MIC of evolved line / MIC of ancestor
[17] = PA-SEN (ATCC BAA 3107), evolved line 10
[18] = PA-SEN (ATCC BAA 3107), evolved line 10, MIC of evolved line / MIC of ancestor
[19] = PA-SEN (Pseudomonas aeruginosa ATCC BAA 3107), evolved line 7 adapted to the named antibiotic
[20] = Pseudomonas aeruginosa ATCC BAA 3107 (PA-SEN), evolved line 2
[21] = Pseudomonas aeruginosa ATCC BAA 3107 (PA-SEN), evolved line 3
[22] = Pseudomonas aeruginosa ATCC BAA 3107 (PA-SEN), evolved line 4
[23] = Pseudomonas aeruginosa ATCC BAA 3107 (PA-SEN), evolved line 5
[24] = Pseudomonas aeruginosa ATCC BAA 3107 (PA-SEN), evolved line 6
[25] = Pseudomonas aeruginosa ATCC BAA 3107 (PA-SEN), evolved line 7
[26] = Pseudomonas aeruginosa ATCC BAA 3107 (PA-SEN), evolved line 8
[27] = Pseudomonas aeruginosa ATCC BAA 3107 (PA-SEN), evolved line 9
[28] = Pseudomonas aeruginosa ATCC BAA 3107 (PA-SEN), evolved line 10

Nc1nc(-n2cc(C(=O)O)c(=O)c3cc(F)c(N4CC(O)C4)c(Cl)c32)c(F)cc1F [Delafloxacin]
Relative MIC (PA-MDR (LESB 58), evolved line 1, MIC of evolved line / MIC of ancestor): 64 | Relative MIC (PA-MDR (LESB 58), evolved line 2, MIC of evolved line / MIC of ancestor): 64 | Relative MIC (PA-MDR (LESB 58), evolved line 3, MIC of evolved line / MIC of ancestor): 64 | MIC of evolved line (PA-MDR (LESB 58), evolved line 4): 128 µg/mL | Relative MIC (PA-MDR (LESB 58), evolved line 4, MIC of evolved line / MIC of ancestor): 64 | MIC of evolved line (PA-MDR (LESB 58), evolved line 5): 128 µg/mL | Relative MIC (PA-MDR (LESB 58), evolved line 5, MIC of evolved line / MIC of ancestor): 64 | MIC of evolved line (PA-MDR (LESB 58), evolved line 6): 64 µg/mL | Relative MIC (PA-MDR (LESB 58), evolved line 6, MIC of evolved line / MIC of ancestor): 32 | MIC of evolved line (PA-MDR (LESB 58), evolved line 7): 128 µg/mL | Relative MIC (PA-MDR (LESB 58), evolved line 7, MIC of evolved line / MIC of ancestor): 64 | MIC of evolved line (PA-MDR (LESB 58), evolved line 8): 128 µg/mL | Relative MIC (PA-MDR (LESB 58), evolved line 8, MIC of evolved line / MIC of ancestor): 64 | MIC of evolved line (PA-MDR (LESB 58), evolved line 9): 128 µg/mL | Relative MIC (PA-MDR (LESB 58), evolved line 9, MIC of evolved line / MIC of ancestor): 64 | MIC of evolved line (PA-MDR (LESB 58), evolved line 10): 64 µg/mL | Relative MIC (PA-MDR (LESB 58), evolved line 10, MIC of evolved line / MIC of ancestor): 32 | Relative MIC (log10) (PA-MDR (Pseudomonas aeruginosa LESB 58), evolved line 2 adapted to the named antibiotic): 1.806 | Relative MIC (log10) (PA-MDR (Pseudomonas aeruginosa LESB 58), evolved line 4 adapted to the named antibiotic): 1.806 | Relative MIC (log10) (PA-MDR (Pseudomonas aeruginosa LESB 58), evolved line 6 adapted to the named antibiotic): 1.505 | Relative MIC (log10) (PA-MDR (Pseudomonas aeruginosa LESB 58), evolved line 7 adapted to the named antibiotic): 1.806 | Relative MIC (log10) (PA-MDR (Pseudomonas aeruginosa LESB 58), evolved line 9 adapted to the named antibiotic): 1.806 | MIC of evolved line (PA-MDR LESB 58, evolved line 1): 128 µg/mL | MIC of evolved line (PA-MDR LESB 58, evolved line 2): 128 µg/mL | MIC of evolved line (PA-MDR LESB 58, evolved line 3): 128 µg/mL | MIC of evolved line [1]: 32 µg/mL | Relative MIC [2]: 2048 | MIC of evolved line [3]: 64 µg/mL | Relative MIC [4]: 4096 | MIC of evolved line [5]: 32 µg/mL | Relative MIC [6]: 2048 | MIC of evolved line [7]: 32 µg/mL | Relative MIC [8]: 2048 | MIC of evolved line [9]: 64 µg/mL | Relative MIC [10]: 4096 | MIC of evolved line [11]: 32 µg/mL | Relative MIC [12]: 2048 | MIC of evolved line [13]: 32 µg/mL | Relative MIC [14]: 2048 | MIC of evolved line [15]: 32 µg/mL | Relative MIC [16]: 2048 | MIC of evolved line [17]: 32 µg/mL | Relative MIC [18]: 2048 | Relative MIC (log10) (PA-SEN (Pseudomonas aeruginosa ATCC BAA 3107), evolved line 2 adapted to the named antibiotic): 3.311 | Relative MIC (log10) [19]: 3.311 | Relative MIC (log10) (PA-SEN (Pseudomonas aeruginosa ATCC BAA 3107), evolved line 8 adapted to the named antibiotic): 3.311 | Relative MIC (log10) (PA-SEN (Pseudomonas aeruginosa ATCC BAA 3107), evolved line 10 adapted to the named antibiotic): 3.311 | Relative MIC [20]: 2048 | Relative MIC [21]: 4096 | Relative MIC [22]: 2048 | Relative MIC [23]: 2048 | Relative MIC [24]: 4096 | Relative MIC [25]: 2048 | Relative MIC [26]: 2048 | Relative MIC [27]: 2048 | Relative MIC [28]: 2048 | Relative MIC (Pseudomonas aeruginosa LESB 58 (PA-MDR), evolved line 1): 64 | Relative MIC (Pseudomonas aeruginosa LESB 58 (PA-MDR), evolved line 2): 64 | Relative MIC (Pseudomonas aeruginosa LESB 58 (PA-MDR), evolved line 3): 64 | Relative MIC (Pseudomonas aeruginosa LESB 58 (PA-MDR), evolved line 4): 64 | Relative MIC (Pseudomonas aeruginosa LESB 58 (PA-MDR), evolved line 5): 64 | Relative MIC (Pseudomonas aeruginosa LESB 58 (PA-MDR), evolved line 6): 32 | Relative MIC (Pseudomonas aeruginosa LESB 58 (PA-MDR), evolved line 7): 64 | Relative MIC (Pseudomonas aeruginosa LESB 58 (PA-MDR), evolved line 8): 64 | Relative MIC (Pseudomonas aeruginosa LESB 58 (PA-MDR), evolved line 9): 64 | Relative MIC (Pseudomonas aeruginosa LESB 58 (PA-MDR), evolved line 10): 32

C[C@H]1c2cccc(O)c2C(=O)C2=C(O)[C@]3(O)C(=O)C(C(N)=O)=C(O)[C@@H](N(C)C)[C@@H]3[C@@H](O)[C@@H]21 [Doxycycline]
Relative MIC (PA-SEN (ATCC BAA 3107), evolved line 1, MIC of evolved line / MIC of ancestor): 64 | MIC of evolved line [1]: 256 µg/mL | Relative MIC [2]: 64 | MIC of evolved line [3]: 256 µg/mL | Relative MIC [4]: 64 | MIC of evolved line [5]: 256 µg/mL | Relative MIC [6]: 64 | MIC of evolved line [7]: 256 µg/mL | Relative MIC [8]: 64 | MIC of evolved line [9]: 256 µg/mL | Relative MIC [10]: 64 | MIC of evolved line [11]: 256 µg/mL | Relative MIC [12]: 64 | MIC of evolved line [13]: 256 µg/mL | Relative MIC [14]: 64 | MIC of evolved line [15]: 256 µg/mL | Relative MIC [16]: 64 | MIC of evolved line [17]: 256 µg/mL | Relative MIC [18]: 64 | Relative MIC (log10) (PA-SEN (Pseudomonas aeruginosa ATCC BAA 3107), evolved line 1 adapted to the named antibiotic): 1.806 | Relative MIC (log10) (PA-SEN (Pseudomonas aeruginosa ATCC BAA 3107), evolved line 3 adapted to the named antibiotic): 1.806 | Relative MIC (log10) (PA-SEN (Pseudomonas aeruginosa ATCC BAA 3107), evolved line 5 adapted to the named antibiotic): 1.806 | Relative MIC (log10) [19]: 1.806 | Relative MIC (log10) (PA-SEN (Pseudomonas aeruginosa ATCC BAA 3107), evolved line 9 adapted to the named antibiotic): 1.806 | MIC of evolved line (PA-SEN ATCC BAA 3107, evolved line 1): 256 µg/mL | Relative MIC (Pseudomonas aeruginosa ATCC BAA 3107 (PA-SEN), evolved line 1): 64 | Relative MIC [20]: 64 | Relative MIC [21]: 64 | Relative MIC [22]: 64 | Relative MIC [23]: 64 | Relative MIC [24]: 64 | Relative MIC [25]: 64 | Relative MIC [26]: 64 | Relative MIC [27]: 64 | Relative MIC [28]: 64
